From paper PMC2248166, “Quantitative peptide binding motifs for 19 human and mouse MHC class I molecules derived using positional scanning combinatorial peptide libraries” (Immunome Research, 2008)
Where a SMILES comes first, the peptide text is derived from it.

Each molecule was assayed against HLA B*1503 (Homo sapiens, UniProt P01889, A329T/A93T/A95T/C349S/D201E/D98Y/E187L/E204Q/K202T/N87E/Q94N/R155S/R180L/S121R/S35A/V306I/V36M/Y140S/Y91S) (assay: biochemical).
Format: binding

Question: How did the IC50 turn out when `CC[C@H](C)[C@H](NC(=O)CNC(=O)[C@H](CC(C)C)NC(=O)[C@H](CCSC)NC(=O)[C@H](CO)NC(=O)[C@@H](N)Cc1ccccc1)C(=O)N[C@@H](Cc1c[nH]c2ccccc12)C(=O)N[C@@H](Cc1ccccc1)C(=O)N[C@@H](Cc1ccccc1)C(=O)O` [3102.1113] (H-FSMLGIWFF-OH) was run?
Answer: 0.028 µM

Question: How did the IC50 turn out when `CC[C@H](C)[C@H](NC(=O)[C@H](CO)NC(=O)[C@@H]1CCCN1C(=O)[C@H](CC(C)C)NC(=O)[C@@H](NC(=O)[C@H](CCSC)NC(=O)[C@H](CCSC)NC(=O)[C@@H](N)CC(C)C)[C@@H](C)O)C(=O)N[C@@H](Cc1ccccc1)C(=O)O` [3102.1317] (H-LMMTLPSIF-OH) was run?
Answer: 0.00015 µM

Question: `CC[C@H](C)[C@H](NC(=O)[C@@H](NC(=O)CNC(=O)[C@H](CCC(=O)O)NC(=O)[C@@H]1CCCN1C(=O)[C@H](CCC(N)=O)NC(=O)[C@@H](N)CCCCN)C(C)C)C(=O)N[C@@H](CC(C)C)C(=O)N[C@@H](Cc1ccccc1)C(=O)O` [3102.1100] (H-KQPEGVILF-OH) was tested. Which IC50 did it give?
Answer: 0.0037 µM

Question: Which IC50 does the source give for `CC[C@H](C)[C@H](NC(=O)[C@H](Cc1ccccc1)NC(=O)[C@H](CCC(=O)O)NC(=O)[C@H](Cc1ccccc1)NC(=O)[C@H](C)NC(=O)[C@H](C)N)C(=O)N[C@@H](CC(N)=O)C(=O)N[C@@H](CO)C(=O)N[C@@H](CC(C)C)C(=O)O` [3102.1324] (H-AAFEFINSL-OH) here?
Answer: 0.0046 µM

Question: For `CC(C)C[C@H](NC(=O)[C@H](Cc1ccc(O)cc1)NC(=O)[C@H](CCC(N)=O)NC(=O)[C@H](Cc1ccccc1)NC(=O)[C@H](CCC(N)=O)NC(=O)[C@@H]1CCCN1C(=O)[C@H](CCC(N)=O)NC(=O)[C@H](CCC(N)=O)NC(=O)[C@@H](N)Cc1ccccc1)C(=O)O` [3102.1233] (H-FQQPQFQYL-OH), which IC50 is on record?
Answer: 0.023 µM

Question: Which IC50 does the source give for `CC(C)C[C@H](N)C(=O)N[C@@H](CCC(=O)O)C(=O)N[C@@H](Cc1ccccc1)C(=O)N[C@@H](CC(N)=O)C(=O)N[C@H](C(=O)N1CCC[C@H]1C(=O)N[C@@H](Cc1ccccc1)C(=O)N[C@H](C(=O)N[C@@H](Cc1ccccc1)C(=O)O)C(C)C)[C@@H](C)O` [3102.1212] (H-LEFNTPFVF-OH) here?
Answer: 0.01 µM

Question: With `CC[C@H](C)[C@H](N)C(=O)N[C@@H](CCCCN)C(=O)N[C@@H](Cc1ccccc1)C(=O)N[C@@H](C)C(=O)N[C@@H](C)C(=O)NCC(=O)N[C@H](C(=O)N[C@H](C(=O)N[C@H](C(=O)O)[C@@H](C)CC)[C@@H](C)CC)[C@@H](C)CC` [3102.1198] (H-IKFAAGIII-OH) as the molecule, how does the IC50 read?
Answer: 0.016 µM

Question: Which IC50 does the source give for `CC[C@H](C)[C@H](N)C(=O)N[C@@H](CCCCN)C(=O)N[C@H](C(=O)N[C@@H](CCSC)C(=O)N[C@@H](CCSC)C(=O)N[C@H](C(=O)N[C@@H](CC(N)=O)C(=O)N1CCC[C@H]1C(=O)N[C@@H](Cc1ccccc1)C(=O)O)[C@@H](C)CC)[C@@H](C)O` [3102.1325] (H-IKTMMINPF-OH) here?
Answer: 0.00019 µM

Question: With `CSCC[C@H](NC(=O)[C@H](C)NC(=O)[C@H](CCCCN)NC(=O)[C@@H](N)Cc1ccccc1)C(=O)N[C@@H](Cc1c[nH]c2ccccc12)C(=O)N[C@@H](CCCCN)C(=O)N[C@@H](Cc1ccc(O)cc1)C(=O)N1CCC[C@H]1C(=O)N[C@@H](Cc1ccccc1)C(=O)O` [3102.1182] (H-FKAMWKYPF-OH) as the molecule, how does the IC50 read?
Answer: 0.00011 µM

Question: For `CC(C)C[C@H](NC(=O)[C@@H](N)Cc1ccccc1)C(=O)N[C@@H](CO)C(=O)N[C@@H](CC(N)=O)C(=O)N[C@@H](CS)C(=O)N[C@@H](CCC(=O)O)C(=O)N[C@@H](CCCCN)C(=O)N[C@@H](CCC(N)=O)C(=O)N[C@@H](Cc1ccccc1)C(=O)O` [3102.1206] (H-FLSNCEKQF-OH), which IC50 is on record?
Answer: 0.021 µM

Question: Which IC50 does the source give for `CC[C@H](C)[C@H](NC(=O)[C@H](CCSC)NC(=O)[C@H](CC(C)C)NC(=O)[C@@H]1CCCN1C(=O)[C@H](CCCNC(=N)N)NC(=O)[C@H](Cc1ccccc1)NC(=O)[C@H](CCCCN)NC(=O)[C@@H](N)CCCCN)C(=O)N[C@@H](Cc1ccccc1)C(=O)O` [3102.1138] (H-KKFRPLMIF-OH) here?
Answer: 0.00017 µM

Question: `CC(C)C[C@H](NC(=O)[C@@H](NC(=O)[C@H](CCCNC(=N)N)NC(=O)[C@H](CC(N)=O)NC(=O)[C@H](CC(N)=O)NC(=O)[C@H](CCCCN)NC(=O)[C@@H](N)CCCCN)C(C)C)C(=O)N[C@@H](CS)C(=O)N[C@@H](Cc1ccccc1)C(=O)O` [3102.1237] (H-KKNNRVLCF-OH) was tested. Which IC50 did it give?
Answer: 0.0016 µM

Question: With `C[C@H](NC(=O)[C@@H](N)CCCNC(=N)N)C(=O)N[C@@H](CO)C(=O)N[C@@H](CO)C(=O)NCC(=O)N[C@@H](CC(=O)O)C(=O)N[C@@H](CO)C(=O)N[C@@H](CO)C(=O)N[C@@H](Cc1ccccc1)C(=O)O` [3102.1236] (H-RASSGDSSF-OH) as the molecule, how does the IC50 read?
Answer: 0.021 µM

Question: For `CC(C)[C@H](N)C(=O)N[C@@H](CCCCN)C(=O)N[C@H](C(=O)N[C@@H](CCCCN)C(=O)N[C@@H](CCC(=O)O)C(=O)N[C@@H](CCC(=O)O)C(=O)N[C@@H](CC(N)=O)C(=O)N[C@H](C(=O)N[C@@H](Cc1ccccc1)C(=O)O)[C@@H](C)O)C(C)C` [3102.1122] (H-VKVKEENTF-OH), which IC50 is on record?
Answer: 0.00042 µM

Question: How did the IC50 turn out when `CC[C@H](C)[C@H](N)C(=O)N[C@@H](CC(C)C)C(=O)N[C@@H](C)C(=O)N1CCC[C@H]1C(=O)N[C@@H](CC(N)=O)C(=O)N1CCC[C@H]1C(=O)N[C@@H](CC(N)=O)C(=O)N[C@@H](CCCNC(=N)N)C(=O)N[C@@H](Cc1ccccc1)C(=O)O` [3102.1221] (H-ILAPNPNRF-OH) was run?
Answer: 0.026 µM

Question: `CSCC[C@H](NC(=O)[C@H](CCSC)NC(=O)[C@H](CCC(=O)O)NC(=O)[C@H](C)N)C(=O)N[C@@H](C)C(=O)N1CCC[C@H]1C(=O)N[C@@H](CO)C(=O)N[C@@H](CCSC)C(=O)N[C@@H](Cc1ccccc1)C(=O)O` [3102.1211] (H-AEMMAPSMF-OH) was tested. Which IC50 did it give?
Answer: 0.017 µM

Question: For `CC[C@H](C)[C@H](NC(=O)[C@@H](NC(=O)[C@@H](NC(=O)[C@H](C)NC(=O)[C@H](CCSC)NC(=O)[C@H](Cc1ccc(O)cc1)NC(=O)[C@H](C)NC(=O)[C@@H](N)CCCNC(=N)N)[C@@H](C)O)[C@@H](C)O)C(=O)N[C@@H](CC(C)C)C(=O)O` [3102.1091] (H-RAYMATTIL-OH), which IC50 is on record?
Answer: 0.018 µM

Question: With `CC(C)C[C@H](NC(=O)[C@@H](N)Cc1ccccc1)C(=O)N[C@@H](CO)C(=O)N[C@@H](CCC(=O)O)C(=O)N1CCC[C@H]1C(=O)N[C@@H](Cc1ccc(O)cc1)C(=O)N[C@@H](CO)C(=O)N[C@@H](Cc1ccc(O)cc1)C(=O)N[C@@H](Cc1ccccc1)C(=O)O` [3102.1270] (H-FLSEPYSYF-OH) as the molecule, how does the IC50 read?
Answer: 0.029 µM

Question: `CC(C)C[C@H](N)C(=O)N[C@@H](CCCCN)C(=O)N[C@@H](Cc1ccc(O)cc1)C(=O)N[C@@H](Cc1ccc(O)cc1)C(=O)N[C@@H](Cc1ccc(O)cc1)C(=O)N[C@@H](CO)C(=O)N[C@@H](CC(N)=O)C(=O)N[C@@H](CO)C(=O)N[C@@H](Cc1ccc(O)cc1)C(=O)O` [3102.1265] (H-LKYYYSNSY-OH) was tested. Which IC50 did it give?
Answer: 0.00024 µM

Question: How did the IC50 turn out when `CSCC[C@H](NC(=O)[C@H](CCCCN)NC(=O)[C@H](CS)NC(=O)[C@H](CO)NC(=O)[C@H](CO)NC(=O)[C@H](CCC(N)=O)NC(=O)[C@@H](N)CCCNC(=N)N)C(=O)N[C@@H](C)C(=O)N[C@@H](CC(C)C)C(=O)O` [3102.1299] (H-RQSSCKMAL-OH) was run?
Answer: 0.019 µM

Question: Which IC50 does the source give for `CC[C@H](C)[C@H](NC(=O)[C@H](Cc1ccc(O)cc1)NC(=O)[C@H](CO)NC(=O)[C@@H]1CCCN1C(=O)[C@H](Cc1ccc(O)cc1)NC(=O)[C@H](CCSC)NC(=O)[C@@H](N)CO)C(=O)N[C@@H](CCC(=O)O)C(=O)N[C@@H](Cc1ccccc1)C(=O)O` [3102.1196] (H-SMYPSYIEF-OH) here?
Answer: 0.00011 µM
